Laboratory results published in patent publication US20050049204A1, “Compounds for the treatment of flaviviridae infections” (priority 2003, published 2005).
Where two headings read alike, the source gives them in different places.

What was measured:
[1] = tested on: rRNA in HCV replicon Huh7 cells; experiment: Reversal studies with natural nucleosides: rRNA; format: cell-based; conditions: for log10 reduction rRNA: no nucleoside
Procedure: (§1) Incubation times differed according to the type of experiment.
(§2) Cells were incubated with the test compound and, simultaneously, the natural ribo- or 2′-deoxy nucleosides (adenosine, guanosine (G), cytidine (C), uridine (U), 2′-deoxycytidine (dC), 2′-deoxyuridine, thymidine, 2′-deoxyguanosine (dG), and 2′-deoxyadenosine) (Table 2).

[2] = tested on: HCV replicon RNA in Huh7 cells; experiment: HCV RNA levels in replicon cells over a 7-day period; format: cell-based, hepatitis C virus (HCV)
[3] = tested on: HCV-replicon RNA-containing Huh7 cells (HCV RNA); experiment: HCV replicon assay: HCV RNA quantified by Q-RT-PCR after 96 h of compound exposure; format: cell-based, hepatitis C virus (HCV); conditions: for EC90: read-out: Corrected HCV RNA EC90
Procedure: as §1

[4] = tested on: HCV replicon RNA in Huh7 cells; experiment: Reversal studies with natural nucleosides: HCV RNA; format: cell-based, hepatitis C virus (HCV)
Procedure: as §1, §2

[5] = tested on: HCV replicon-containing Huh7 cell line; experiment: Dynamics of replicon cell growth (cell count) over a 7-day period
[6] = tested on: rRNA in HCV-replicon RNA-containing Huh7 cells; experiment: rRNA levels in HCV replicon cells (cellular toxicity), Q-RT-PCR after 96 h; conditions: 100 μM
Procedure: HCV replicon cells were seeded in the presence of test compound at approximately 10^3 cells per well in a 96-well plate and incubated for 96 hours. rRNA and HCV RNA were quantified by Q-RT-PCR. ●: HCV RNA levels; ◯: rRNA levels; ▾: HCV RNA levels after correction (=subtraction of rRNA) for cellular toxicity. […] The plots shown are the mean results of at least three independent experiments. EC90 values as given in Table 1 are read from the HCV curves corrected for cellular toxicity.
HCV-replicon RNA-containing Huh7 cells (Clone A cells; Apath, LLC, St. Louis, Mo.) were kept in exponential growth in DMEM media (high glucose, no pyruvate) containing 10% fetal bovine serum, 1× non-essential amino acids (100 units/ml), penicillin-streptomycin (100 μg/ml), glutamine (0.292 mg/ml), and G418 (1,000 μg/ml). Antiviral assays were performed in the same medium without G418. […] Cells were seeded in a 6-well plate at 10^5 cells per well. Candidate antiviral compounds were tested as described (Stuyver, et al. “A ribonucleoside analogue that blocks the replication of bovine viral diarrhea and hepatitis C viruses in culture” Antimicrob. Agents Chemother., January 2003, 47 (1), 244-254). Incubation times differed according to the type of experiment. At the end of the incubation step, cells were counted using the trypan-blue exclusion method, and total cellular RNA was isolated (Rneasy 96 kit, Qiagen, CA). Replicon RNA and an internal control (TaqMan Ribosomal RNA Control Reagents, Applied Biosystems, CA) were amplified in a single-step, multiplex RT-PCR protocol, as recommended by the manufacturer and as described (Stuyver, et al. “A ribonucleoside analogue that blocks the replication of bovine viral diarrhea and hepatitis C viruses in culture” Antimicrob. Agents Chemother., January 2003, 47 (1), 244-254).
Replicon cells were incubated in the absence or presence of these anti-metabolites for 96 hours, after which intracellular rRNA and HCV RNA levels were quantified (Table 1).

[7] = seven-day assay, tested at approximately EC90 value

Structure (SMILES) | log10 reduction rRNA including natural nucleoside ([1]; 25 μM + C at 50 μM) [log10] | log10 reduction rRNA ([1]; 25 μM) [log10] | reducing the HCV RNA levels ([2]; 100 μM, 7-day period) | log reduction at 10 µM ([3]; Hepatitis C virus, Huh-7, 10 μM, 96 h, corrected by subtraction of rRNA, read-out: Corrected HCV RNA log10 reduction at 10 μM) | log reduction at 100 µM ([3]; Hepatitis C virus, Huh-7, 100 μM, 96 h, corrected by subtraction of rRNA, read-out: Corrected HCV RNA log10 reduction at 100 μM) | log reduction at 100 µM ([3]; Hepatitis C virus, Huh-7, 100 μM, 96 h, read-out: Log10 RNA reduction (100 μM) HCV) | EC90 ([3]; Hepatitis C virus, Huh-7, 96 h, read from HCV curves corrected for rRNA reduction) [µM] | log10 reduction HCV including natural nucleoside ([4]; 25 μM + C at 50 μM) [log10] | effect on cell proliferation ([5]; 100 μM, 7-day period) | Log10 RNA reduction (100 μM) rRNA [6] [log10] | log10 reduction rRNA including natural nucleoside ([1]; 100 μM + U at 50 μM) [log10] | log10 reduction rRNA ([1]; 100 μM) [log10] | inhibition of the HCV RNA replication [2, 7] | Corrected HCV RNA log10 reduction at 10 μM ([3]; 10 μM, 96 h, corrected by subtraction of rRNA) [log10] | Corrected HCV RNA log10 reduction at 100 μM ([3]; 100 μM, 96 h, corrected by subtraction of rRNA) [log10] | EC90 ([3]; Hepatitis C virus, Huh-7, 96 h) [µM] | log10 reduction HCV including natural nucleoside ([4]; 100 μM + U at 50 μM) [log10] | log10 reduction HCV ([4]; 100 μM, no nucleoside) [log10] | effect on cell growth [5, 7]
C[C@@]1(O)[C@H](O)[C@@H](CO)O[C@H]1n1ccc(N)nc1=O [2′C—CH3—C, 2′-C-methyl-cytidine] | 0.14 ± 0.04 | −0.01 ± 0.02 | very potent | 1 | 2.21 ± 0.47 | 2.2 ± 0.52 | 10.4 | 0.48 ± 0.02 | no | −0.02 ± 0.05 |  |  |  |  |  |  |  |  | 
NC(=O)c1[nH]nc([C@@H]2O[C@H](CO)[C@@H](O)[C@H]2O)c1O [pyrazofurin] |  |  |  |  |  |  |  |  |  | 0.42 ± 0.03 | −0.01 ± 0.04 | 0.42 ± 0.03 | very potent inhibition | 1.16 ± 0.21 | 1.46 ± 0.08 | 3.8 | 0.35 ± 0.03 | 1.88 ± 0.05 | minimal effect
